Assay results published in patent publication US20230212202A1, “TREATMENT OF MGMT DEFICIENT CANCER WITH 2-FLUOROETHYL-SUBSTITUTED NITROSOUREAS AND OTHER COMPOUNDS” (YALE UNIVERSITY, priority 2021, published 2023).

Tests used:
[1] = test system: WT and XPA-deficient MEFs; assay: Short-term cell viability assay in NER isogenic MEFs; assay type: cell-based, mouse; settings: ±MGMT depletion with O6BG
Excerpt: (§1) Short-term Cell Viability Assay.

[2] = test system: HCT116 MLH1-/- cells or HCT116 +Chr3 cells; assay: Short-term viability assay with or without O6BG; assay type: cell-based, human
Excerpt: as §1

[3] = test system: DLD1 MSH6-deficient cells; assay: Short-term viability assay with or without O6BG; assay type: cell-based, human; settings: with or without O6BG-induced MGMT depletion
Excerpt: as §1

[4] = test system: LN229 MGMT-/MMR+ and MGMT-/MMR- flank tumors; assay: Flank tumor second study: regimens, schedules and routes; assay type: in vivo, mouse; settings: 5, 15, 25 mg/kg; MWF × 3 weeks, M-F × 1 week; PO, IP
Excerpt: In a second study, mice were randomized and administered either KL-50 (4a) or vehicle (10% cyclodextrin) by oral gavage or intraperitoneal injection on either M-F × 1 or MWF × 3 cycles at 5, 15, or 25 mgs/kg. Caliper measurements were obtained during the dosing period and at least two weeks following treatment. Mice were euthanized if body weight loss exceeded 20% or if tumor volume increased to greater than 2000 mm^3.

[5] = test system: DLD1 BRCA2+/- and BRCA2-/- cells; assay: Short-term viability assay with or without O6BG; assay type: cell-based, human
[6] = test system: PEO4 (BRCA2+) and PEO1 (BRCA2-/-) cells; assay: Short-term viability assay with or without O6BG; assay type: cell-based, human
[7] = test system: linearized pUC19 plasmid DNA; assay: Melting temperature assay; assay type: biochemical; settings: 100 or 500 µM, 3 h
[8] = test system: LN229 MGMT+/-, MMR+/- cells; assay: Short-term cell viability assay, four isogenic LN229 glioblastoma cell lines; assay type: cell-based, human
[9] = test system: CHK1 and CHK2 phosphorylation in LN229 MGMT+/-, MMR+/- cells; assay: Western blotting of CHK1 and CHK2 phosphorylation; assay type: cell-based, human; settings: 20 µM, 24 or 48 h
Procedure: Western Blotting. For phospho-protein analysis experiments, cells were lysed in 1X RIPA buffer (Cell Signaling Technology, #9806) supplemented with 1X Protease Inhibitor Cocktail (Roche) and 1X PhosSTOP Phosphatase Inhibitor Cocktail (Sigma). For all other western blot analyses, cells were lysed in lysis buffer (50 mM HEPES, 250 mM NaCl, 5 mM EDTA, 1% NP-40) supplemented with 1X Protease Inhibitor Cocktail (Roche). The de-ubiquitination inhibitor N-ethylmaleimide (NEM, 4 mM) was added in FANCD2 ubiquitination analysis experiments. Proteins were separated using NuPAGE 4-12% Bis-Tris or 3-8% Tris-Acetate Gels (Invitrogen) and transferred to Immobilon-P PVDF membrane (Millipore) for western blotting. Membranes were blocked with 5% milk in TBS-T for 1 h prior to primary antibody addition overnight at 4° C. […] Where shown, bands were quantified using ImageJ software.

[10] = test system: LN229 MGMT+/- cells with shRNA targeting MSH6, MLH1, PMS2, or MSH3; assay: Short-term viability assay, MMR shRNA lines; assay type: cell-based, human; settings: shMSH6, shMLH1, shPMS2, shMSH3
[11] = test system: LN229 MGMT-/MMR- intracranial tumors; assay: Intracranial tumor model; assay type: in vivo, mouse; settings: 25 mg/kg IP M-F × 1 week

## NC(=O)c1ncn2c(=O)n(CCF)nnc12 [KL-50]
[1]
  sensitivity of XPA deficient cells: absence of additional sensitivity
[2]
  activity in HCT116 cells: selective tumor cell killing specifically in the setting of O^6BG-induced MGMT suppression
[3]
  activity in DLD1 cells: toxic to these cells, but only after O^6BG-induced MGMT depletion
[4]
  efficacy and toxicity across regimens: effective and non-toxic
[5]
  sensitivity of BRCA2-/- cells: BRCA2 loss enhanced the toxicity
[5]; DLD1 isogenic model
  therapeutic index (TI), ratio of IC50 values in MGMT+/BRCA2+ cells compared to MGMT-/BRCA2- cells: ~ 600 fold
[6]
  sensitivity of BRCA2-/- cells: BRCA2 loss enhanced the toxicity
[6]; PEO1/4 model
  therapeutic index (TI): 62 fold
[7]
  DNA melting temperature: comparable changes in measured DNA melting temperature
[8]
  activity in the four LN229 cell lines: mirrored that of 4b
  rescue of toxicity by ROS scavenger NAC: did not result in rescue
[8]; LN229
  selectivity for MGMT-deficient cells: ~ 25 fold
[9]
  CHK1 and CHK2 phosphorylation: induced CHK1 and CHK2 phosphorylation in MGMT- cells regardless of MMR status
[10]
  activity in MGMT- LN229 cells lacking other MMR proteins: confirmed
[11]
  intracranial tumor growth: effective
